According to the PolyMetriX glass transition set:
± gives the standard deviation of the reports.

glass transition temperature | SMILES
130.00 °C | *CCCCCCCCOc1ccc(/C=C/c2cc(OCCCCCCCC)c(/C=C/c3ccc(O*)cc3)cc2OCCCCCCCC)cc1 (repeat unit)
275.00 ± 5.7 °C | *c1ccc2c(c1)C(=O)N(c1cccc(S(=O)(=O)c3cccc(N4C(=O)c5ccc(C(*)(C(F)(F)F)C(F)(F)F)cc5C4=O)c3)c1)C2=O (repeat unit)
-65.00 °C | *O[Si](C)(C)O[Si](*)(C)c1c(F)c(F)c(F)c(F)c1F (repeat unit)
107.00 °C | *CC(*)(C)C(=O)OCCN(C)c1ccc(/C=C/c2ccc([N+](=O)[O-])cc2)cc1 (repeat unit)
189.00 °C | *C(=O)Oc1ccc(OC(=O)c2ccc3c(c2)C(=O)N(c2ccc(Oc4ccc(N5C(=O)c6ccc(*)cc6C5=O)cc4)cc2)C3=O)c(C(C)(C)C)c1 (repeat unit)
178.00 °C | *c1ccc(Oc2cccc(Oc3ccc(N4C(=O)c5ccc(Oc6ccc(Sc7ccc(Oc8ccc9c(c8)C(=O)N(*)C9=O)cc7)cc6)cc5C4=O)cc3)c2)cc1 (repeat unit)
61.00 °C | *C1C(=O)N(CCCCCCCOc2ccc(-c3ccc(C#N)cc3)cc2)C(=O)C1* (repeat unit)
74.30 °C | *O[Si](*)(C)CCCCCCCCCCC(=O)Oc1ccc(C(=O)Oc2ccc(-c3ccc(OC(=O)c4ccc(OCC(C)CC)cc4)cc3)cc2)cc1 (repeat unit)
354.50 °C | *c1ccc(-c2nc3ccc(-c4ccc5nc(*)c(-c6ccccc6)nc5c4)cc3nc2-c2ccccc2)cc1 (repeat unit)
152.00 °C | *CC(F)(F)C1(F)C(*)CC(O)(C(F)(F)F)C1(F)F (repeat unit)
194.00 °C | *Oc1ccc(C2(c3ccc(Oc4ccc(C(=O)c5cccc(C(=O)c6ccc(*)cc6)c5)cc4)cc3)CCC3CCCCC3C2)cc1 (repeat unit)
35.80 °C | *CC(*)C(=O)OCCCCCCOc1ccc(/N=N/c2ccc([N+](=O)[O-])cc2)cc1 (repeat unit)
202.00 °C | *c1cc(C(c2ccc(OCCN(CC)c3ccc(/C=C/C4=CC(=C(C#N)C#N)CC(C)(C)C4)cc3)c(N3C(=O)c4ccc(Oc5ccc6c(c5)C(=O)N(*)C6=O)cc4C3=O)c2)(C(F)(F)F)C(F)(F)F)ccc1OCCN(CC)c1ccc(/C=C/C2=CC(=C(C#N)C#N)CC(C)(C)C2)cc1 (repeat unit)
142.00 °C | *c1ccc2c(c1)Sc1cc(-c3ccc(-c4ccc(*)s4)s3)ccc1N2CCCCCCCCCC (repeat unit)
305.00 °C | *Oc1ccc(NC(=O)c2cc(NC(=O)c3ccncc3)cc(C(=O)Nc3ccc(*)cc3)c2)cc1 (repeat unit)
173.00 °C | *Oc1ccc(C(CC)(c2ccccc2)c2ccc(OC(*)=S)cc2)cc1 (repeat unit)
54.00 °C | *c1ccc(-c2ccc(-c3ccc(-c4ccc(-c5ccc(*)n5CCCCCCCCCCCC)s4)s3)s2)s1 (repeat unit)
-69.00 °C | *CC(C)(CC)COC(=O)CCCCCCCCC(=O)O* (repeat unit)
51.00 °C | */C=C/C1CC(*)C(C(=O)OCCCCCCCCOc2ccc(/C=C/c3ccc([N+](=O)[O-])cc3)cc2)C1 (repeat unit)
72.00 °C | *CCCCCCCCCOC(=O)Nc1ccc(Cc2ccc(NC(=O)O*)cc2)cc1 (repeat unit)

glass transition temperature | SMILES
54.00 °C | *CC(*)OC(=O)C1(F)C(F)(F)C(F)(F)C(F)(F)C(F)(F)C1(F)F (repeat unit)
206.00 °C | *Nc1cc([N+](=O)[O-])c(NC(=O)CCCCC(*)=O)cc1/C=C/c1ccc(N(C)C)cc1 (repeat unit)
26.00 °C | *Oc1ccc(C(=O)OCCCCCOC(=O)c2ccc(*)cc2)cc1 (repeat unit)
-65.00 °C | *CC(*)c1ccc(CCCCCCCCCC)cc1 (repeat unit)
184.50 °C | *Oc1ccc(-c2ccc(OC(=O)c3ccc(C(=O)c4ccc(C(*)=O)cc4)cc3)c(-c3ccccc3)c2)cc1-c1ccccc1 (repeat unit)
0.00 °C | *CC(*)c1ccc(COCCOCC)cc1 (repeat unit)
141.00 °C | *OS(=O)(=O)c1cc(S(=O)(=O)Oc2ccc(C3(c4ccc(*)c(C)c4)CCCCC3)cc2C)ccc1C (repeat unit)
249.00 °C | *Oc1ccc(C(=O)Nc2ccc(Br)cc2-c2ccc(NC(=O)c3ccc(*)cc3)cc2)cc1 (repeat unit)
14.2 °C | *Oc1ccc(C(C)(C)c2ccc(OC(=O)CCCCCCCCC(*)=O)cc2)cc1 (repeat unit)
64.00 °C | *CC(*)C(=O)Nc1ccc(C(=O)/C=C/c2ccc(Br)cc2)cc1 (repeat unit)
157.00 °C | *c1cccc(OCCCCCCOc2cccc(N3C(=O)c4ccc(-c5cccc6c5C(=O)N(*)C6=O)cc4C3=O)c2)c1 (repeat unit)
135.00 °C | *CCN(CCOC(=O)Nc1ccc(C)c(NC(=O)O*)c1)c1ccc(/N=N/c2ccc([N+](=O)[O-])cc2C)c(C)c1 (repeat unit)
96.00 °C | *Oc1c(C)cc(-c2cc(C)c(OC(=O)CCCCCC(*)=O)c(C)c2)cc1C (repeat unit)
232.50 °C | *C(F)(F)C(*)(F)C(F)(F)C(F)(F)C(F)(F)C(F)(F)C(F)(F)F (repeat unit)
147.00 °C | *Oc1ccc(Oc2ccc(NC(=O)c3ccc(Oc4ccc(C(C)(C)c5cccc(C(C)(C)c6ccc(Oc7ccc(C(=O)Nc8ccc(*)cc8)cc7)cc6)c5)cc4)cc3)cc2)cc1 (repeat unit)
-15.00 °C | *CC(*)(C)C(=O)OCC(F)(F)C(F)(F)C(F)(F)C(F)(F)C(F)(F)C(F)(F)C(F)(F)C(F)F (repeat unit)
45.00 °C | *CC(*)(C)C(=O)OCCCCCC(=O)Oc1ccc(OC(=O)c2ccc(OCCC)cc2)cc1 (repeat unit)
66.00 °C | *OC(=O)CNC(=O)CCCCCCCCC(=O)NCC(=O)OC1COC2C(*)COC12 (repeat unit)
195.00 °C | *CCC1C(=O)N(c2ccc(N(C)C)cc2)C(=O)C1* (repeat unit)
139.00 °C | *CCN(*)C(=O)CC12CC3CC(CC(C3)C1)C2 (repeat unit)

SMILES | glass transition temperature
*c1ccc(OCCN(CCOc2ccc(-c3nc4ccc(Oc5ccc6nc(*)c(-c7ccccc7)nc6c5)cc4nc3-c3ccccc3)cc2)c2ccc(/C=C/c3ccc([N+](=O)[O-])cc3)cc2)cc1 (repeat unit) | 201.00 °C
*OP(=O)(Oc1ccc(Br)cc1)Oc1ccc(S(=O)(=O)c2ccc(*)cc2)cc1 (repeat unit) | 89.00 °C
*CC(*)c1cccc(Br)c1 (repeat unit) | 102.00 °C
*CC(*)c1cccc(Cl)c1 (repeat unit) | 90.00 °C
*CC(*)(C)C(=O)Oc1c(C(C)C)cccc1C(C)C (repeat unit) | 198.00 °C
*ON(C(F)(F)F)C(F)(Cl)C(*)(F)F (repeat unit) | -50.00 °C
*O[Si](*)(C)CCC(F)(F)F (repeat unit) | -69.00 °C
*CC(COCCCC)O* (repeat unit) | -79.00 °C
*C1c2cccc3cccc(c23)C1* (repeat unit) | 250.00 °C
